US7652015B2, “Kinase inhibitors” (Eli Lilly and Company, priority 2006, dated 2010)
Where a name gives a salt, the structure may show the parent alone.

The compounds below were run on p-MAPKAPK2 (assay: Inhibition of p-MAPKAPK2 in vitro, anisomycin-stimulated RAW 264.7 cells, ELISA). Settings: Mus musculus, RAW264.7; RAW 264.7 cells, 2 hours compound, anisomicin 100 ug/ml 30 minutes; read-out: IC50, inhibition of p-MAPKAPK2 in vitro.
Format: cell-based, murine
Procedure: RAW 264.7 cells (a murine monocytic/macrophage line ATCC) are seeded at a density of 50,000 cells/well in 96-well plates with RPMI-1640 medium plus 10% fetal bovine serum (FBS) and allowed to settle and adhere to the bottom of the well for 48 hours. After reaching confluence, cells are treated for 2 hours with 10 serial dilutions of different compounds. A control compound is always included. After 2 hours, anisomicin (100 ug/ml) is added and cells are incubated for 30 minutes at 37° C. under a 5% CO2 atmosphere. Then, cells are fixed and treated with hydrogen peroxide in order to remove endogenous peroxidase. Finally, plates are blocked with FBS, washed, and an ELISA assay is carried out by using an antiphospho-MAPKAPK (Thr 334, Cell Signalling, Cat # 3041) antibody and ahP-Conjugated Secondary Antibody. This reaction is detected by using FEMTO (Pierce) which is an enhanced chemiluminiscent substrate ahP that results in rapid kinetic light output and high signal intensity.
An IC50 of 6.7 nM was found for `Cc1ccc(-n2nc(C(C)(C)C)cc2NC(=O)Nc2ccc(N3CCN(C(=O)c4c(Cl)cccc4Cl)CC3)nc2C)cc1` [Example 45, 1-(5-tert-Butyl-2-p-tolyl-2H-pyrazol-3-yl)-3-{6-[4-(2,6-dichloro-benzoyl)-piperazin-1-yl]-2-methyl-pyridin-3-yl}-urea methanesulfonate] in this work. An IC50 of 176 nM was found for `Cc1ccc(-n2nc(C(C)(C)C)cc2NC(=O)Nc2ccc(OC3CCN(C(=O)C4(C)CC4)CC3)nc2C)cc1` [Example 77, 1-(5-tert-Butyl-2-p-tolyl-2H-pyrazol-3-yl)-3-{2-methyl-6-[1-(1-methyl-cyclopropanecarbonyl)-piperidin-4-yloxy]-pyridin-3-yl}-urea] in this work. An IC50 of 16 nM was found for `Cc1ccc(-n2nc(C(C)(C)C)cc2NC(=O)Nc2ccc(OC3CCN(C(=O)c4ccc(Cl)s4)CC3)nc2)cc1` [Example 92, 1-(5-tert-Butyl-2-p-tolyl-2H-pyrazol-3-yl)-3-{6-[1-(5-chloro-thiophene-2-carbonyl)-piperidin-4-yloxy]-pyridin-3-yl}-urea] in this work. An IC50 of 286 nM was found for `Cc1ccc(-n2nc(C(C)(C)C)cc2NC(=O)Nc2cnc(N3CCN(C(=O)C4(C)CC4)CC3)cc2C)cc1` [Example 128, 1-(5-tert-Butyl-2-p-tolyl-2H-pyrazol-3-yl)-3-{4-methyl-6-[4-(1-methyl-cyclopropanecarbonyl)-piperazin-1-yl]-pyridin-3-yl}-urea mesylate] in this work.

Each compound was assayed on p-MAPKAPK2 in the same assay as above. Settings: Mus musculus, RAW264.7, in the presence of 100% serum.
Format: cell-based, murine
An IC50 of no more than 500 nM was found for `Cc1ccc(-n2nc(C(C)(C)C)cc2NC(=O)Nc2ccc(N3CCN(C(=O)c4ccccc4Cl)CC3)nc2C)cn1` [Example 111, 1-[5-tert-Butyl-2-(6-methyl-pyridin-3-yl)-2H-pyrazol-3-yl]-3-{6-[4-(2-chloro-benzoyl)-piperazin-1-yl]-2-methyl-pyridin-3-yl}-urea mesylate] in this work. An IC50 of no more than 500 nM was found for `Cc1ccc(-n2nc(C3(C(F)(F)F)CC3)cc2NC(=O)Nc2ccc(N3CCN(C(=O)c4sccc4C)CC3)nc2C)cn1` [Example 113, 1-{2-Methyl-6-[4-(3-methyl-thiophene-2-carbonyl)-piperazin-1-yl]-pyridin-3-yl}-3-[2-(6-methyl-pyridin-3-yl)-5-(1-trifluoromethyl-cyclopropyl)-2H-pyrazol-3-yl]-urea mesylate] in this work. An IC50 of no more than 500 nM was found for `Cc1ccc(-n2nc(C3(C(F)(F)F)CC3)cc2NC(=O)Nc2ccc(N3CCN(C(=O)c4ccccc4Cl)CC3)nc2C)cn1` [Example 114, 1-{6-[4-(2-Chloro-benzoyl)-piperazin-1-yl]-2-methyl-pyridin-3-yl}-3-[2-(6-methyl-pyridin-3-yl)-5-(1-trifluoromethyl-cyclopropyl)-2H-pyrazol-3-yl]-urea mesylate] in this work. An IC50 of no more than 500 nM was found for `Cc1ccc(-n2nc(C3(C(F)(F)F)CC3)cc2NC(=O)Nc2ccc(N3CCN(C(=O)c4ccccc4F)CC3)nc2C)cn1` [Example 115, 1-{6-[4-(2-Fluoro-benzoyl)-piperazin-1-yl]-2-methyl-pyridin-3-yl}-3-[2-(6-methyl-pyridin-3-yl)-5-(1-trifluoromethyl-cyclopropyl)-2H-pyrazol-3-yl]-urea mesylate] in this work. An IC50 of no more than 500 nM was found for `Cc1ccc(-n2nc(C(C)(CF)CF)cc2NC(=O)Nc2ccc(N3CCN(C(=O)c4ccccc4C)CC3)nc2C)cc1` [Example 119, 1-[5-(2-Fluoro-1-fluoromethyl-1-methyl-ethyl)-2-p-tolyl-2H-pyrazol-3-yl]-3-{2-methyl-6-[4-(2-methyl-benzoyl)-piperazin-1-yl]-pyridin-3-yl}-urea] in this work.
